# Measurements reported in patent publication US20260191875A1, “FUSED AMINO PYRIMIDINE COMPOUNDS FOR TREATMENT OF ADDICTION AND INSOMNIA” (Ovid Therapeutics Inc., priority 2024, published 2026).
# Positions count from the first letter of the chain named.
# How the values were obtained:
# [1] = tested on: panel of 144 protein kinases; test: panel of 144 protein kinases (SelectScreen; Thermofisher); assay type: biochemical; conditions: 144 protein kinases incl. PKC isoforms, OSR1, SPAK, WNK
# KCC2 = target: T1, KCC2 (Homo sapiens, UniProt Q9H2X9); test: cellular thermal shift assay (CETSA), HEK-293 cells expressing KCC2; assay type: binding
# T1 construct: expressed in transfected cells; host or cells: HEK-293 (ATCC CRL-1573), transient transfection
# T1 sequence (Q9H2X9 1-1116 isoform Q9H2X9-2): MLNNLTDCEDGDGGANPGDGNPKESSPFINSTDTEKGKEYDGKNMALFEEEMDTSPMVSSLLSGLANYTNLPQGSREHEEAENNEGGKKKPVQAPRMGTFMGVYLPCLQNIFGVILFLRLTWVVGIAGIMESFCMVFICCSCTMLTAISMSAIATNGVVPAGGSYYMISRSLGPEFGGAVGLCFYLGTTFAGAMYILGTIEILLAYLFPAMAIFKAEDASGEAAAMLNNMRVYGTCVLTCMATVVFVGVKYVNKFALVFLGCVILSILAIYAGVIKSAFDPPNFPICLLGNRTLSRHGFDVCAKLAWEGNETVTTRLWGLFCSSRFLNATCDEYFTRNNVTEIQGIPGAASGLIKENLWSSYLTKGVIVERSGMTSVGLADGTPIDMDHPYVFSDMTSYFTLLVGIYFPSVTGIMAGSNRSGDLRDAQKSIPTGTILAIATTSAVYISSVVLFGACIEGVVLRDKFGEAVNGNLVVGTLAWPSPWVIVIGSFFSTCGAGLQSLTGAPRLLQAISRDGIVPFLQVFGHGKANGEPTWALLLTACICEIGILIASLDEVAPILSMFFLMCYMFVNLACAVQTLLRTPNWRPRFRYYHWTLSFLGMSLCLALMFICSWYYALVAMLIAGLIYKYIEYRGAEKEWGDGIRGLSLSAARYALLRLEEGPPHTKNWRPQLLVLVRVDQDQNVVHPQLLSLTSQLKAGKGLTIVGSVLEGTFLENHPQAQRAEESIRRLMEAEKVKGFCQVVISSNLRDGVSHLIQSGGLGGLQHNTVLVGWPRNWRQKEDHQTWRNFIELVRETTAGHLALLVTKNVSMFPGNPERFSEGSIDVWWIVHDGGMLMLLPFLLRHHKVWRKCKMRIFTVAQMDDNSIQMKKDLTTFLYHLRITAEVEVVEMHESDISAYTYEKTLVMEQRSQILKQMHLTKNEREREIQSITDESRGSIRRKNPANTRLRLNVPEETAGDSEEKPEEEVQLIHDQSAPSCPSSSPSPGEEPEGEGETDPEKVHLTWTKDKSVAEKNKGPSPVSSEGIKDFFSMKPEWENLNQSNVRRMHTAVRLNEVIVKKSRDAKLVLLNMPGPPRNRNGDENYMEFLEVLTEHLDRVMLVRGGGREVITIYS
# Procedure: Determining if compounds in SSA directly interact with KCC2. This was tested using a cellular thermal shift assay (CETSA), which measures the ability of a drug to modify the thermal stability of its target in whole cells (Kawatkar et al., ACS Chem. Biol. 14, 1913-1920 (2019); Martinez et al., Sci Rep 8, 9472 (2018)).
# 2×10^6 transfected HEK-293 cells were incubated with 30 μM drug or vehicle for 90 min at 37° C. and then heated from 37-58° C. for 5 min. Cells were rapidly chilled to 25° C. and NP40 was added to a final concentration […] to snap freezing in liquid nitrogen. Following 5 freeze/thaw cycles lysates were centrifuged at 12,000×g to remove denatured proteins and associated cell debris.
# Aliquots of HEK-293 cells expressing KCC2 were exposed to 30 μM SSA, heated from 37-55° C. The remaining level of soluble native KCC2 at each temperature was measured by immunoblotting and normalized to the level seen at 37° C. which was given a value of 1. […] This panel included protein kinase C isoforms, OSR1, SPAK (STK39) and with-no-lysine kinases (WNK), all of which phosphorylate KCC2 on multiple residues to indirectly modify its activity (Kahle et al., 2013, supra; Smalley et al., 2020, supra).
# [2] = set-up: species or system Mice; conditions: in vivo
# [3] = PK studies, brain and plasma levels by LC-MS/MS; assay type: in vivo, Mice; conditions: 50 mg/kg SC
# Procedure: PK studies. […] Plasma and brain samples were rapidly frozen on dry ice.
# Drug accumulation in the brain was examined following SC injection (FIG. 4C; 50 mg/kg).
# [4] = tested on: acute brain slices exposed to 0-Mg; test: late recurrent discharges in acute brain slices exposed to 0-Mg
# [5] = tested on: neuronal cell death in the hippocampus; test: neuronal cell death in the hippocampus, mice treated with Compound A and diazepam; assay type: in vivo; conditions: Compound A and diazepam vs diazepam alone
# KCC2-S940A = target: T2, KCC2-S940A (Homo sapiens, UniProt Q9H2X9, S963A); test: Tl+ flux assay, HEK-293 cells expressing KCC2-S940A; assay type: cell-based
# T2 construct: expressed in transfected cells; host or cells: HEK-293
# T2 sequence (Q9H2X9 1-1116 isoform Q9H2X9-2 S940A): T1 sequence (Q9H2X9 1-1116 isoform Q9H2X9-2) with S940A
# Procedure: FLIPR TI Flux assay. HEK-293 cells were washed with HBSS, and then incubated with loading buffer containing TI sensitive fluorescent dye (https://www.moleculardevices.com), 20 μM bumetanide 20 μM ouabain and 2.5 mM probenecid for 1 h at room temperature (RT) under control conditions or with drugs in the dark using a FlexStation 3 microplate reader (Molecular Devices) and imaged […] for 30 min. Stimulus buffer was added containing 5 mM K^+/0.5 mM Tl^+ and cells were imaged every 1.5 over a 190 second time course The initial rate Tl^+ uptake (Relative Fluorescence Units (RFU) per second) was determined following addition of the stimulus buffer as outlined previously (Conway et al., 2017, supra) (Lee et al., 2022, supra).
# Several studies have shown that the activity and plasma membrane accumulation of KCC2 is potentiated via phosphorylation of S940, a process mediated by the activity of protein kinase C and protein phosphatase 1 (Lee et al., 2011, supra, Lee et al., J Biol Chem 282, 29777-29784 (2007); Moore et al., Proc. Natl. Acad. Sci. U.S.A 115, 10166-10171 (2018); Moore et al., Trends Neurosci. 40, 555-571 (2017); Silayeva et al., Proc. Natl. Acad. Sci. U.S.A 112, 3523-3528 (2015)). […] Compared to KCC2, effects on KCC3, KCC4, and NKCC1 were only seen at concentrations more than 35-fold that of KCC2 (>100 μM) (FIG. 1G).
structure (smiles),measurement,setting,value
"C[C@@H]1CN(c2nc3c(c(Nc4ccc(C5CCCCC5)cc4)n2)COC3)CCO1 [Compound A, (R)—N-(4-cyclohexylphenyl)-2-(2-methylmorpholino)-5,7-dihydrofuro[3,4-d]pyrimidin-4-amine]",activity of kinase panel,[1],did not modify the activity
same,direct binding to KCC2,KCC2,capable of directly binding to KCC2
same,gross effects on mouse behavior,[2],no gross effects on mouse behavior
same,accumulation in the brain at 30 min,[3],detected
same,brain level 8 h later,[3],maintained
same,time of maximal concentration in the brain,[3],4 h
same,development of late recurrent discharges (LRDs),[4],reduced
same,neuronal cell death in the hippocampus,[5],significantly reduced
same,activity of KCC2-S940A construct,KCC2-S940A,increased the activity
